How the values were obtained:
[1] = tested on: tympanic membrane (TM) of rats with active bacterial OM; experiment: Comparative TM transit of individual phage clones in vivo (plaque assay of ME fluid); set-up: species or system rat (male Sprague-Dawley), NTHi-induced OM; conditions: for TM-transit rate into the ME compared with WT phage and the other clones: phage clone displaying the peptide, 1 × 10^10 phage particles on one TM for 1 hr, six rats, plaque assay of ME fluid; for phage particles in the ME after 1 hr incubation of the peptide-phage on the TM: 10^10 PFUs applied, mean of six animals
Experimental: (§1) All animal experiments were performed in strict accordance to the Guide for the Care and Use of Laboratory Animals of the National Institutes of Health (NIH) and the policies of the Veterans Affairs San Diego Healthcare Systems, CA. Experiments were carried out in strict accordance with an approved Institutional Animal Care and Use Committee (IACUC) protocol. Male Sprague–Dawley rats were purchased from The Jackson Laboratory. The animals were anesthetized with an intraperitoneal injection of 1.0–1.5 ml per 200–300 g bodyweight of rodent cocktail (40 mg/Kg Ketamine, 10 mg/Kg Xylasine, and 0.75 mg/Kg Acepromazine). The skin of the neck was shaved and treated with Povidone antiseptic solution. OM was induced by infecting the ME with nontypeable Haemophilus influenzae (NTHi) in a laboratory setting by surgically exposing the bulla via a ventral approach through a vertical midline incision made in the neck. A 25-gauge needle was used to fenestrate the bulla and inject ~50 μL saline solution containing 10^4 CFU/mL NTHi bacteria strain 3655 (biotype II, originally isolated from the ME of a pediatric OM patient). Following the inoculation, the opening was closed and incision was stapled. The TMs were visually confirmed to be intact after surgery and the rats were given Lactated Ringer’s solution and buprenorphine subcutaneously postoperatively. For in vivo phage display experiments, rats were used at two days post NTHi inoculation. The ears were examined otoscopically at this time to confirm signs of active infection and the presence of fluid in the ME cavity.
After three or ten rounds of subtraction/selection in strategies 1 and 2 respectively, single blue plaques were selected at random for preparation of purified stocks and sequencing as recommended by the manufacturer (New England Biolabs, Cambridge, MA, USA). Phage transit efficiency was determined by incubating 1 × 10^10 PFUs (plaque-forming units) of specific phage over the TMs of rats in vivo for 1 hr. At least six animals per time point were used. Incubation, washings, and elution conditions were performed as above. The phage transiting efficiency was determined by comparing the number of plaque-forming phage recovered from the ME fluid (output) by the number of plaque-forming phage in the input (TM side).
We quantified the rate of TM transit into the ME for all peptides identified by Strategy 1 (Fig. 3A) and those from Strategy 2 (Fig. 3B) that appeared at a frequency of three or more in our sequenced sample (Tables 1 and 2). Individual phage clones were amplified and 1 × 10^10 phage particles were applied onto one TM of six anesthetized rats for 1 hr. The number of phage particles recovered from the ME was then compared to that observed for WT (untargeted) phage. […] On the other hand, the peptide sequence of BPT-4 was clearly distinct in the phylogeny analysis.

[2] = tested on: tympanic membrane (TM) of rats with OM; experiment: Transport kinetics and saturation of TMT-3 phage in vivo; set-up: species or system rat (male Sprague-Dawley), NTHi-induced OM; conditions: for phage recovery from the ME: at least six animals per time point
Experimental: as §1
The phage peptide with one of the highest transport capacities measured above TMT-3 SADSTKTTHLTL, was selected for further transport specificity, kinetics and competitive binding assays. To evaluate the kinetics of transport of the TMT-3 single phage clone, a TMT-3 phage preparation was incubated on the TM over a 1, 2 or 4 hr time period at 1 × 10^10 PFU concentration. At least six animals per time point were used. Incubation, washing, and elution conditions were performed as above in rats with OM. The level of phage transport was evaluated by determining the titer (PFUs) of TMT-3 phage present in the ME fluid. To assess transport saturation, the recovery of TMT-3 phage from the ME was compared following application of 10^10 versus 10^12 phage particles to the TM for 1 hr. The corresponding free peptide SHSADSTKTTHLTLGGG was synthesized by Genscript (Piscataway, NJ, USA) in addition to an untargeted randomized control peptide SHDLSTSATLTHTKGGG (Genscript, Piscataway, NJ, USA) at purity >95%. All peptides were reconstituted in PBS pH, 7.2. For the competition assay TMT-3 phage application to the TM was performed at titer of 10^10 PFUs, as above. However, 1 μM of free peptide was included with the phage.

[3] = tested on: healthy (uninfected) tympanic membrane; experiment: TMT-3 phage transport across TMs of uninfected MEs; type: in vivo, rat; conditions: n = 6, data not shown
Text: To establish the specificity of translocation, we assessed whether a synthetic TMT-3 peptide would interfere with internalization of corresponding peptide-bearing phage into the ME. […] In addition, TMT-3 phage was applied onto the TMs of uninfected MEs (n = 6). We observed that for healthy TMs, phage transport into the ME was quite limited when compared to the infected TM (data not shown). This could be attributed to limitations in efficient phage transport when fluid is not present on the other side of the TM. Alternatively, it is possible that the transit mechanism employed is only present in infected TMs.

[4] = tested on: TMs of ex vivo MEs from rats undergoing OM; experiment: Ex vivo ME transport: dependence on time after death and temperature; set-up: species or system rat; conditions: for phage recovery through ex vivo TMs: warmed to 37 °C, 1 hr with phage
Experimental: In order to learn more about the pharmacokinetics mechanisms of transport, we tested the effect of varying metabolism or temperature on transport rates. […] MEs were removed intact from deeply anesthetized rats undergoing OM as described above. […] Translocation is also temperature dependent. […] It is well known that endocytosis is inhibited at 4 °C[36][37].

Sequence	TM-transit rate into the ME compared with WT phage and the other clones [1]	phage particles in the ME after 1 hr incubation of the peptide-phage on the TM ([1]; 1 hr, rats with OM)	also measured
SDDSRPIAQFAI [TMT-5]	highest rates of transport	–	–
DVGAGRWFSDNG [TMT-4]	highest rates of transport	more than 2 × 10^3 phage particles	–
TFNPPPPQMPST [BPT-4]	highest rates of transport	more than 2 × 10^3 phage particles	–
SADSTKTTHLTL [TMT-3, transport tests used the phage clone]	highest rates of transport	more than 2 × 10^3 phage particles	dependence of phage recovery on time on the TM ([2]; 1, 2 and 4 hrs of contact with the infected TM, 1 × 10^10 PFU): exponential increase; dependence of phage recovery on the amount applied (saturation) ([2]; 10^10 versus 10^12 phage particles applied to the TM for 1 hr): increased proportionally with concentration; phage recovery from the ME ([2]; 1 hr of contact with the infected TM, 1 × 10^10 PFU): approximately 10^4 phage particles; phage recovery from the ME ([2]; 4 hrs of contact with the infected TM, 1 × 10^10 PFU): ~10^6 phage particles; recovery from the ME among the six positive phage clones ([1]; 10^10 PFUs, 1 hr, rats with OM): greatest recovery from the ME; phage transport into the ME through healthy TMs compared to the infected TM [3]: quite limited; ME recovery of phage ex vivo ([4]; 4 °C, 1 hr exposure of the TM to 10^10 PFUs): severely compromised; phage recovery through ex vivo TMs ([4]; TMs stored 12 hrs postmortem at 4 °C): No recovery; phage recovery through ex vivo TMs ([4]; TMs stored 24 hrs postmortem at 4 °C): No recovery
TLSPKMPGGGYW [TMT-2]	highest rates of transport	more than 2 × 10^3 phage particles	–
THPSTKVPGTPA [BPT-3]	highest rates of transport	more than 2 × 10^3 phage particles	–

From paper PMC4780071, “Discovery of a Biological Mechanism of Active Transport through the Tympanic Membrane to the Middle Ear” (Scientific Reports, 2016)
